{"source": "PubChem BioAssay AID1261", "about": "(University of Pittsburgh Molecular Library Screening Center, 2008)", "note": "Inconclusive results are not listed. Active and inactive are the calls of the source. No rule for the calls is given here.", "data": [{"target": "Tyrosine-protein phosphatase YopH [Yersinia enterocolitica]", "test": "potency against Yersinia YopH phosphatase – biochemical, 10-point dose range, dose response (AID 1261)", "conditions": "YopH phosphatase enzymatic assay, IC50, 3 runs", "values": [{"smiles": "CCN(CC)c1ccc(/C=N/Nc2ccc(C)cc2)c(O)c1", "IC50": "> 50 µM (inactive)"}, {"smiles": "COc1cc(C2C(C(=O)OC(C)C)=C(C)Nc3[nH]c(=O)[nH]c(=O)c32)ccc1O", "note": "(stereo not given)", "IC50": "> 50 µM (inactive)"}, {"smiles": "CCCCOC(=O)C1=C(C)NC2(O)c3ccccc3C(=O)C12O", "note": "(stereo not given)", "IC50": "> 50 µM (inactive)"}]}, {"target": "Tyrosine-protein phosphatase YopH [Yersinia enterocolitica]", "test": "potency against Yersinia YopH phosphatase – biochemical, 10-point dose range, dose response (AID 1261)", "conditions": "YopH phosphatase enzymatic assay, IC50, 3 runs; inhibition; at 50 µM; stronger effect = higher value", "units": {"inhibition": "%"}, "values": [{"smiles": "Cc1onc(-c2ccccc2)c1C(=O)NCc1ccccn1", "inhibition": -11.6}, {"smiles": "Cc1nc2ccccc2c(=O)n1NC(=O)c1c(O)c2c(n(CC(C)C)c1=O)CCCC2", "inhibition": -4.05}, {"smiles": "CC1(C)COC(/C=C/c2ccc([N+](=O)[O-])cc2)=N1", "inhibition": -8.03}, {"smiles": "O=C(c1ccc(F)cc1)[C@@H]1[C@@H](C(=O)c2ccccc2)[C@@]2(C(=O)Nc3ccccc32)[C@H]2c3ccccc3C=CN12", "inhibition": 13.8}, {"smiles": "COCCCNC(=O)CC(NS(=O)(=O)c1ccc(F)cc1)c1ccc(OC)cc1", "note": "(stereo not given)", "inhibition": -10.7}, {"smiles": "CCN(CC)c1ccc(/C=N/Nc2ccc(C)cc2)c(O)c1", "inhibition": 9.55}, {"smiles": "COc1cccc(-c2nc(CS(=O)(=O)CC(=O)N3CCc4ccccc4C3)c(C)o2)c1", "inhibition": -0.295}, {"smiles": "CCCCCCCC1=CC2=CC(=O)C(C)(OC(C)=O)C(=O)C2=CN1CCc1ccccc1", "note": "(stereo not given)", "inhibition": -7.04}, {"smiles": "CCC(=O)N1Cc2ccccc2-c2ccccc2C1=O", "inhibition": -4.86}, {"smiles": "COc1ccc(NC(=O)/C(=C/c2cccnc2)NC(=O)c2cccs2)cc1", "inhibition": -16.6}, {"smiles": "Clc1ccc(C2=CSC3=Nc4cccc5cccc(c45)N23)cc1", "inhibition": 13.3}, {"smiles": "O=C(/C=C/c1ccc([N+](=O)[O-])cc1)OCC(=O)N1c2ccccc2Sc2ccccc21", "inhibition": -1.56}, {"smiles": "CN(C(=O)COc1ccc(C(C)(C)C)cc1)C1CCS(=O)(=O)C1", "note": "(stereo not given)", "inhibition": -19.1}, {"smiles": "CN(C1=C(NC(=O)c2ccccc2)C(=O)c2ccccc2C1=O)C1CCS(=O)(=O)C1", "note": "(stereo not given)", "inhibition": 27}, {"smiles": "O=C(c1ccco1)N1CCN(CC(=O)N2CCCc3c2c(=O)oc2ccc(O)cc32)CC1", "inhibition": -5.68}, {"smiles": "Cc1ccc(S(=O)(=O)N2CCCC(C(=O)NCc3ccco3)C2)cc1Cl", "note": "(stereo not given)", "inhibition": 12.9}, {"smiles": "Cc1ccc(CSCCNC(=O)CN2C(=O)c3ccccc3S2(=O)=O)cc1", "inhibition": -6.7}, {"smiles": "O=C(CSc1ncn[nH]1)c1ccc2c(c1)OCO2", "inhibition": -17.6}, {"smiles": "CC(=O)[C@H]1[C@@H]2C(=O)N(c3cccc(Cl)c3)C(=O)[C@@H]2[C@H]2c3ccccc3C=CN21", "inhibition": 5.01}, {"smiles": "O=C(COC(=O)c1ccc([N+](=O)[O-])s1)Nc1ccccc1", "inhibition": -23.9}, {"smiles": "CCN(CC)c1ccc(C=Nc2ccccc2)c(O)c1", "inhibition": 17.6}, {"smiles": "COc1cc(C2C(C(=O)OC(C)C)=C(C)Nc3[nH]c(=O)[nH]c(=O)c32)ccc1O", "note": "(stereo not given)", "inhibition": 4.55}, {"smiles": "COC(=O)N(NC(=O)C(O)(CCC(C)C)CCC(C)C)c1ccccc1", "inhibition": 4.94}, {"smiles": "O=C1CC(N(O)c2ccccc2)C(=O)N1Cc1ccccc1", "note": "(stereo not given)", "inhibition": -4.47}, {"smiles": "CC(=O)c1ccc(NC2=C(N3CCOCC3)C(=O)c3ccccc3C2=O)cc1", "inhibition": 30.4}, {"smiles": "COCCCNC(=O)CCCC(=O)NCCCOC", "inhibition": -17.3}, {"smiles": "CCCCOC(=O)C1=C(C)NC2(O)c3ccccc3C(=O)C12O", "note": "(stereo not given)", "inhibition": 36.9}, {"smiles": "COc1ccc(CCN2C(=O)c3ccncc3C2=O)cc1OC", "inhibition": 0.113}, {"smiles": "COc1ccc(/C=N/NC(=O)C(C)n2cnc3ccccc3c2=O)cc1OC", "note": "(stereo not given)", "inhibition": 8.51}, {"smiles": "O=c1cc(CN2CCN(c3ccccc3F)CC2)c2cc(O)c(-c3ccccc3)cc2o1", "inhibition": 4.58}, {"smiles": "Cc1ccc(NC(=O)c2ccnc(C(C)(C)C)c2)cc1", "inhibition": -1.22}, {"smiles": "Nc1cccc(C2=Nc3cccc4cccc(c34)N2)c1", "inhibition": 75.9}, {"smiles": "O=C(/C=C/c1ccc(O)cc1)c1ccc(NC2=C(N3CCCCC3)C(=O)c3ccccc3C2=O)cc1", "inhibition": 18.9}, {"smiles": "COc1ccc(-c2nnc(SCC(=O)c3cccs3)o2)c(OC)c1", "inhibition": -10.6}, {"smiles": "Cc1ccc(C(=O)N2C(=S)C(c3ccc(F)cc3)=NC23CCN(C)CC3)cc1", "inhibition": -3.79}, {"smiles": "O=c1[nH]c(Nc2ccc(F)cc2)cc2ccccc12", "inhibition": 28.2}, {"smiles": "C=CCc1cccc2cc(C(=O)Nc3ccc(S(=O)(=O)Nc4nnc(CC)s4)cc3)c(=O)oc12", "inhibition": 23.8}]}]}
